Assay results from patent US20260241041A1, “FLUORESCENCE IMAGING REAGENT FOR LIPID DROPLETS IN TISSUES AND CELLS” (NATIONAL UNIVERSITY CORPORATION GUNMA UNIVERSITY, priority 2021, published 2026).

Tests used:
[1] = green fluorescence; cited from earlier work
[2] = Solubility / precipitation in physiological saline; format: physicochemical
Description: (§1) Fluorescence imaging of lipid droplets in a tissue, and of an adipose tissue, using DBC30, DBC30-Bu, or DBC30-Ph is described below. Since the DBC30 series has remarkably low solubility in water (physiological saline), they cannot be easily directly dissolved. […] Therefore, they cannot be administered to mice. In view of this, the 5 mM stock solution was added (at a volume ratio of 10%) to physiological saline supplemented with 10% bovine serum albumin. […] Regarding administration of MNs-NB, a stock solution in DMSO is directly administered to mice. Since administration of DMSO may cause death of mice from shock, the administration method in the present invention is thought to be a safer method. Here, 100 to 200 μL of 500 μM solution (50 to 100 nmol) was administered to the tail vein of mice under anesthesia, and a fluorescence imaging experiment was carried out. In the present experiment, a microscope capable of acquiring fluorescence lifetime images as well as fluorescence intensity images (FLIM: fluorescence lifetime imaging microscope) was used.

[3] = system: lipid droplets in HeLa cells; test: Co-staining with BODIPY 493/503 for lipid droplet selectivity; format: cell-based; details: 400 μM oleic acid, 100 nM, 30 min, excitation 430 nm, observation 460-500 nm
Description: In order to clarify the lipid droplet selectivities of DBC30, DBC30-Bu, and DBC30-Ph, co-staining experiments were carried out with BODIPY 493/503, which is a commercially available green fluorescent lipid droplet reagent (FIGS. 8 to 10). Each fluorescent reagent was added to a final concentration of 100 nM to HeLa cells cultured for 48 hours in the presence of 400 μM oleic acid. Culture was then performed for 30 minutes, and the cultured cells were irradiated with an excitation light required for the imaging, followed by observation. For DBC30, DBC30-Bu and DBC30-Ph, the excitation wavelength was 430 nm, and the observation wavelength was 460-500 nm. For BODIPY 493/503, the excitation wavelength was 488 nm, and the observation wavelength was 510 to 560 nm.

[4] = system: lipid droplets in HeLa cells; test: Fluorescence imaging of lipid droplets in cultured cells (luminescence intensity vs Lipi-Blue); format: cell-based; details: 400 μM oleic acid 48 h, reagent 500 nM, 60 min, excitation 430 nm, compared with Lipi-Blue
Description: (§2) Fluorescence intensity imaging and fluorescence lifetime imaging were carried out using a confocal laser microscope (IX-73; manufactured by Olympus Corporation) equipped with a confocal scanner (DCS-120; Becker & Hickl).
Imaging of lipid droplets in cultured cells was studied by a comparative experiment on the performance between DBC30, DBC30-Bu, and DBC30-Ph, and a commercially available blue imaging reagent (Lipi-Blue). The investigated items were the luminescence intensity and the photostability.
Each fluorescent reagent was added to a final concentration of 500 nM to HeLa cells cultured for 48 hours in the presence of 400 μM oleic acid. Culture was then performed for 60 minutes, and the cultured cells were irradiated with an excitation light (DBC30, DBC30-Bu, DBC30-Ph, Lipi-Blue: 430 nm) required for the imaging, followed by observation using a confocal laser microscope.

[5] = Measurement of maximum absorption wavelength, maximum fluorescence wavelength and fluorescence quantum yield in solvents; format: physicochemical
Description: Using a luminescent quantum yield measurement apparatus ([…]-01, manufactured by Hamamatsu Photonics K. K.), the maximum absorption wavelength (λabs/nm), the maximum fluorescence wavelength (λflu/nm), and the fluorescence quantum yield (Φf) of the compound in each solvent were measured. […] The fluorescence quantum yield was not less than 0.9 in any of the solvents.

[6] = Measurement of fluorescence lifetime in solvents; format: physicochemical
Description: The fluorescence lifetime (τf) of the compound in each solvent was measured using a compact fluorescence lifetime measurement apparatus (Quntaurus-Tau, manufactured by Hamamatsu Photonics K. K.).
The compounds of the present invention synthesized in the above Synthesis Examples (FIG. 4; DBC30, DBC30-Bu, and DBC30-Ph) contain an 8-dibutylaminocoumarine skeleton. […] The maximum absorption wavelength was found at 401 to 412 nm, and the maximum fluorescence wavelength was found at 467 to 484 nm, which corresponds to blue fluorescence. […] The fluorescence quantum yield was not less than 0.9 in any of the solvents.

[7] = system: lipid droplets in the liver; test: Fluorescence intensity and lifetime imaging of liver lipid droplets in normal and fatty-liver model mice; format: in vivo, mice (BALB/cAJcl); details: 50 nmol, tail vein
Description: as §2
as §1, with “used. […]” for “used.”

lipid droplets = test: Multicolor imaging with Mito Tracker Green and Lyso Tracker Red; format: cell-based; details: co-staining with Mito Tracker Green and Lyso Tracker Red
Source text: Mito Tracker Green (excitation wavelength, 488 nm; observation wavelength, 510 to 560 nm), which is a green fluorescent reagent showing accumulation in mitochondria, and Lyso Tracker Red (excitation wavelength, 570 nm; observation wavelength, >590 nm), which is a red fluorescent reagent showing accumulation in lysosomes, were used.

[8] = system: lipid droplets in HeLa cells; test: Photostability in cells under repeated confocal scanning; format: cell-based; details: 400 μM oleic acid, 100 nM, 500 times of scanning, excitation 430 nm
Description: Photostability is an important factor in long-term measurement for, for example, tracing the processes of formation, fusion, and degradation of lipid droplets. Each fluorescent reagent was added to a final concentration of 100 nM (DBC30, C6-OBu, or BODIPY493/503) or 2 μM (Lipi-Blue) to HeLa cells cultured for 48 hours in the presence of 400 μM oleic acid. Culture was then performed for 30 minutes, and the cultured cells were irradiated with an excitation light (DBC30, DBC30-Bu, Lipi-Blue: 430 nm; BODIPY 493/503: 488 nm) required for the imaging, followed by acquisition of imaging images using a confocal laser microscope. The photostability was evaluated by 500 times of scanning in which a set of 50 times of scanning was repeated.

[9] = system: adipose tissues and lipid droplets; test: Fluorescence imaging of adipose tissues, skeletal muscle and kidney of a mouse; format: in vivo, mouse (BALB/cAJcl); details: 50 nmol
Description: as §2, §1
In an individual, various adipose tissues and lipid droplets are present. Their imaging was carried out using DBC30. […]

[10] = 5 mM DMSO stock added at 10% to physiological saline supplemented with 10% bovine serum albumin
[11] = 5 mM DMSO stock added at volume ratio of 10% to physiological saline

SMILES	fluorescence wavelength [1]	precipitation [2, 10]	precipitation [2, 11]	lipid droplet selectivity (co-staining with BODIPY 493/503) [3]	fluorescence intensity in cells [4]	λabs max ([5]; in Bu2O (dibutyl ether)) [nm]	λflu max ([5]; in Bu2O (dibutyl ether)) [nm]	φl (fluorescence quantum yield) ([5]; in Bu2O (dibutyl ether))	λabs max ([5]; in MeCN (acetonitrile)) [nm]	λflu max ([5]; in MeCN (acetonitrile)) [nm]	φl (fluorescence quantum yield) ([5]; in MeCN (acetonitrile))	τf (fluorescence lifetime) ([6]; in Bu2O (dibutyl ether)) [ns]	τf (fluorescence lifetime) ([6]; in MeCN (acetonitrile)) [ns]	imaging of lipid droplets in liver ([7]; fatty-liver model mouse (Week 2))	imaging of lipid droplets in liver ([7]; mouse fed with a normal diet)	use in multicolor imaging (lipid droplets)	photostability in cells [8]	imaging of lipid droplets in kidney [9]	imaging of subcutaneous adipose tissue, abdominal adipose tissue, skeletal muscle and kidney [9]
CC1=CC(C)=[N+]2C1=C(C)c1c(C)cc(C)n1[B-]2(F)F [BODIPY 493/503]	about 500 nm																		
CCCCN(CCCC)c1ccc2cc(-c3nc4ccccc4n3-c3ccccc3)c(=O)oc2c1 [DBC30-Ph]		could be suppressed	precipitation of DBC30, DBC30-Bu, or DBC30-Ph occurs	found to have lipid droplet selectivity	higher fluorescence intensities than the HeLa cells to which Lipi-Blue was added	399	467	0.92	412	484	0.92	2.29	2.51						
CCCCN(CCCC)c1ccc2cc(-c3nc4ccccc4n3C)c(=O)oc2c1 [DBC30]		could be suppressed	precipitation of DBC30, DBC30-Bu, or DBC30-Ph occurs	found to have lipid droplet selectivity	higher fluorescence intensities than the HeLa cells to which Lipi-Blue was added	404	468	0.93	410	484	0.90	2.29	2.55	large lipid droplets were imaged over the entire liver surface	small lipid droplets could be found in hepatocytes	can be used for multicolor imaging	higher photostability compared to the conventional reagents such as Lipi-Blue	small lipid droplets distributed in tubular cells could be imaged	Fluorescence derived from DBC30 was found from sites where lipid is accumulated
